Like-named read-outs stand apart in the source and are kept apart here.
Legend:
human CSNK1A1 = human CSNK1A1 (Homo sapiens (Human), UniProt P48729); assay: CSNK1A1 assay (ADP-Glo, 1 μM ATP); type: biochemical; conditions: median, read-out: CSNK1A1 Low ATP IC50 [mol/l] (median)
Protocol: CSNK1A1-inhibitory activity of compounds of the present invention in presence of 1 μM adenosine-tri-phosphate (ATP) was quantified employing the CSNK1A1 assay as described in the following paragraphs. In essence, the enzyme activity is measured by quantification of the adenosine-di-phosphate (ADP), which is generated as a co-product of the enzyme reaction, via the “ADP-Glo™ Kinase Assay” kit from the company Promega. This detection system works as follows: In a first step the ATP not consumed in the kinase reaction is quantitatively converted to CAMP employing an adenylate cyclase (“ADP-Glo-reagent”), then the adenylate cyclase is stopped and the ADP generated in the kinase reaction converted to ATP which generates in a luciferase-based reaction a glow-luminescence signal (“Kinase Detection Reagent”).
Recombinant fusion protein of N-terminal Glutathion-S-Transferase (GST) and full-length human CSNK1A1, expressed by baculovirus infected insect cells and purified via Glutathion affinity chromatography, was purchased from Life Technologies (product no. PV4174) and used as enzyme. As substrate for the kinase reaction the biotinylated peptide biotin-Ahx-KRRRAL-pS-VASLPGL (C-terminus in amide form) was used which can be purchased e.g. from the company Biosyntan (Berlin-Buch, Germany).
For the assay 50 nl of a 100-fold concentrated solution of the test compound in DMSO was pipetted into a white 1536-well microtiter plate (Greiner Bio-One, Frickenhausen, Germany), 2 μL of a solution of CSNK1A1 in aqueous assay buffer [50 mM HEPES pH 7.5, 10% (v/v) glycerol, 10 mM MgCl2, 50 mM NaCl, 1 mM dithiothreitol, 0.01% (w/v) bovine serum albumin, 0.01% (v/v) Triton X-100] were added and the mixture was incubated for 15 min at 22° C. to allow pre-binding of the test compounds to the enzyme before the start of the kinase reaction. Then the kinase reaction was started by the addition of 3 μL of a solution of ATP (1.67 μM=>final conc. in the 5 μL assay volume is 1 μM) and peptide substrate (50 μM=>final conc. in the 5 μL assay volume is 30 μM) in assay buffer and the resulting mixture was incubated for a reaction time of 30 min at 22° C. The concentration of CSNK1A1 was adjusted depending of the activity of the enzyme lot and was chosen appropriate to have the assay in the linear range, a typical concentrations are about 0.0375 ng/μL. The reaction was stopped by the addition of 2.5 μL of “ADP-Glo-reagent” (1:1.5 fold diluted with water) and the resulting mixture was incubated at 22° C. for 1 h to convert the ATP not consumed in the kinase reaction completely to CAMP. Subsequently 2.5 μL of the “kinase detection reagent” (1.2 fold more concentrated than recommended by the producer) were added, the resulting mixture was incubated at 22° C. for 1 h and then the luminescence measured with a suitable measurement instrument (e.g. Viewlux™ from Perkin-Elmer). The amount of emitted light was taken as a measure for the amount of ADP generated and thereby for the activity of the CSNK1A1.
The data were normalised (enzyme reaction without inhibitor=0% inhibition, all other assay components but no enzyme=100% inhibition).

total-p53 in MCF-7 cells = assay: HTRF total-p53 in MCF-7 cells; type: cell-based; conditions: median, read-out: HTRF total-p53 MCF-7, IC50 - [mol/l] (median)
Protocol: Day 1: MCF-7 cells were seeded (10,000 cells in 12 μl/well) in a 384-well-Small Volume-plate (Greiner Bio One #784075) in culture medium (RPMI 1640; (Biochrom; #F 1275; without PhenolRed)+FCS (final: 10%); (Biochrom; #S 0415)+Insulin (bovine); (final: 10 μg/mL, Biochrom; #K 3510)+L-Alanyl-L-Glutamine; (final: 2 mM, Biochrom; #K 0302)+Natriumpyruvat; (final: 1 mM, Biochrom; #L 0473)+Non Essentiell Amino Acids; (final: 1×, Biochrom; #K 0293)). The cells were then treated with different compounds or DMSO (added with the HP Dispenser) and incubated for 2 h at 37° C. Following incubation, the cells were lysed in 4 μl of lysis buffer for 1 h shaking at RT. Finally, 4 μl of antibody solution was added and the samples are incubated overnight at RT, shaking.
Total-p53 was detected in a sandwich assay format using 2 different specific antibodies, one labeled with Eu3+-Cryptate (donor) and the second with d2 (acceptor). Kit: HTRF total p53 detection assay (Cisbio Cat: 64T53PEG).
Day 2: the plate was read on PHERAstar FS (BMG Labtech settings; optic module: HTRF; integration start: 60 us; integration time: 400 μs; flash lamp). IC50 values were calculated using the DRC application in ShiNy Analysis Platform-SNAP.”

LoVo cells = assay: LoVo cell proliferation assay, CTG method; type: cell-based; conditions: 96 h, median, read-out: 2D-PROLI LoVo CTG 96 h, IC50 - [mol/l] (median)
Protocol: CELL PROLIFERATION ASSAY CTG METHOD, 384-well version: Day 1: plate 400 cells/30 μL/well in growth medium (RPMI 1640 (Gibco #61870-10; with Glutamax)+10% FBS) in 384-well black plates (Corning #3571). Plated sister wells in a separate plate for time zero determination. Incubated all plates overnight at 37° C. Day 2: added test compounds in serial dilutions using the HP D300 Digital Dispenser and incubate at 37° C. for 96 h. Measured time zero plate: add 30 μL/well CTG solution (Promega CellTiter-Glo solution (catalog #G7573)) to wells in time zero plate; incubated for 2 minutes in a orbital shaker to induce cell lysis; allowed the plate to incubate at room temperature for additional 10 min to stabilize luminescent signal and read luminescence on PheraStar (rapid mode-0.02 sec/well; GAIN 3000). Day 6: Added 30 μL/well CTG solution to all test wells, incubated for 2 minutes in a orbital shaker to induce cell lysis; allowed the plate to incubate at room temperature for additional 10 min to stabilize luminescent signal and read luminescence on PheraStar (rapid mode-0.02 sec/well; GAIN 3000). Proliferation IC50s were calculated using the DRC application in ShiNy Analysis Platform-SNAP.”

[1] = Homo sapiens, MCF7, 2 h incubation

human CSNK1A1, sequence (P48729 whole entry): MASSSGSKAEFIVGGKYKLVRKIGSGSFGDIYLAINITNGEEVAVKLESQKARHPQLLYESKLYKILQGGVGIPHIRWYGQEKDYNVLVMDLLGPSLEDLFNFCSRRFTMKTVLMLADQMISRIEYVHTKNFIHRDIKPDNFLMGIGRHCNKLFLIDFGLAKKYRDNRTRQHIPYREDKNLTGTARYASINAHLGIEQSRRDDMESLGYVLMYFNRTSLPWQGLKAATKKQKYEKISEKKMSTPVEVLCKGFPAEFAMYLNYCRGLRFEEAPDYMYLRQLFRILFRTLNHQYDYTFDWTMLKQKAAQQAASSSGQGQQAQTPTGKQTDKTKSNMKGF

Structure (SMILES)	IC50 (human CSNK1A1) [nM]	IC50 (total-p53 in MCF-7 cells; [1]) [nM]	IC50 (LoVo cells; Homo sapiens) [nM]	IC50 (total-p53 in MCF-7 cells; 2 h incubation) [nM]	IC50 (LoVo cells) [nM]
Cc1ocnc1CC(=O)Nc1cc(-c2[nH]c3cccnc3c2-c2ccccn2)ccn1 [Example 11, 2-(5-methyloxazol-4-yl)-N-[4-[3-(2-pyridyl)-^1H-pyrrolo[3,2-b]pyridin-2-yl]-2-pyridyl]acetamide]	3.43	375	3320		
Cc1nn(C)cc1CC(=O)Nc1cc(-c2[nH]c3cccnc3c2-c2ccccn2)ccn1 [Example 9, 2-(1,3-dimethylpyrazol-4-yl)-N-[4-[3-(2-pyridyl)-^1H-pyrrolo[3,2-b]pyridin-2-yl]-2-pyridyl]acetamide]	2.61	210	4070		
O=C(Cc1cc2ccccn2n1)Nc1cc(-c2[nH]c3cccnc3c2-c2ccccn2)ccn1 [Example 15, 2-pyrazolo[1,5-a]pyridin-2-yl-N-[4-[3-(2-pyridyl)-^1H-pyrrolo[3,2-b]pyridin-2-yl]-2-pyridyl]acetamide]	1.07	69.3	192		
O=C(Cc1cnc2ccccn12)Nc1cc(-c2[nH]c3cccnc3c2-c2ccccn2)ccn1 [Example 1, 2-imidazo[1,2-a]pyridin-3-yl-N-[4-[3-(2-pyridyl)-^1H-pyrrolo[3,2-b]pyridin-2-yl]-2-pyridyl]acetamide]	5.89	193	12400		
Cc1nc(C)c(CC(=O)Nc2cc(-c3[nH]c4cccnc4c3-c3ccccn3)ccn2)s1 [Example 18, 2-(2,4-dimethylthiazol-5-yl)-N-[4-[3-(2-pyridyl)-^1H-pyrrolo[3,2-b]pyridin-2-yl]-2-pyridyl]acetamide]	1.46	56.6	1130		
Cc1nn(C)c(C)c1CC(=O)Nc1cc(-c2[nH]c3cccnc3c2-c2ccccn2)ccn1 [Example 17, N-[4-[3-(2-pyridyl)-^1H-pyrrolo[3,2-b]pyridin-2-yl]-2-pyridyl]-2-(1,3,5-trimethylpyrazol-4-yl)acetamide]	2.97	198	5660		
Cn1cc(CC(=O)Nc2cc(-c3[nH]c4cccnc4c3-c3ccccn3)ccn2)cn1 [Example 2, 2-(1-methylpyrazol-4-yl)-N-[4-[3-(2-pyridyl)-^1H-pyrrolo[3,2-b]pyridin-2-yl]-2-pyridyl]acetamide]	4.21	264	8410		
Cn1cnc(CC(=O)Nc2cc(-c3[nH]c4cccnc4c3-c3ccccn3)ccn2)c1 [Example 5, 2-(1-methylimidazol-4-yl)-N-[4-[3-(2-pyridyl)-^1H-pyrrolo[3,2-b]pyridin-2-yl]-2-pyridyl]acetamide]	4.12	924	7430		
O=C(Nc1cc(-c2[nH]c3c(OCC(F)F)ncnc3c2-c2ccccn2)ccn1)[C@@H](CC(F)F)c1ccc(F)cc1 [Example C3, reference compound]	3.1			97.9	115
CC(C)n1ccc(CC(=O)Nc2cc(-c3[nH]c4cccnc4c3-c3ccccn3)ccn2)n1 [Example 28, 2-(1-isopropylpyrazol-3-yl)-N-[4-[3-(2-pyridyl)-^1H-pyrrolo[3,2-b]pyridin-2-yl]-2-pyridyl]acetamide]	2.28	129	636		
Cc1nc(CC(=O)Nc2cc(-c3[nH]c4cccnc4c3-c3ccccn3)ccn2)cs1 [Example 3, 2-(2-methylthiazol-4-yl)-N-[4-[3-(2-pyridyl)-^1H-pyrrolo[3,2-b]pyridin-2-yl]-2-pyridyl]acetamide]	1.81	184	363		
Cc1noc(C)c1CC(=O)Nc1cc(-c2[nH]c3cccnc3c2-c2ccccn2)ccn1 [Example 12, 2-(3,5-dimethylisoxazol-4-yl)-N-[4-[3-(2-pyridyl)-^1H-pyrrolo[3,2-b]pyridin-2-yl]-2-pyridyl]acetamide]	1.71	205	6810		
